Experimental data as given in patent publication US20090181904A1, “METHOD FOR REGULATING NUTRIENT ABSORPTION WITH GINSENOSIDES” (priority 2005, published 2009).

Tests used:
Type in all cases: cell-based, human
Caco2 cells [1] = assay: Folate uptake assay (3H-folate uptake in Caco2 cells); conditions: compound 0.1 μM
Protocol: The Caco2 cells were subjected to folate uptake test in a manner similar to that described in the glucose uptake assay in Example 1 above. In the folate uptake test, the Caco2 cells were pretreated with the culture medium containing 5% FBS and purified ginsenosides at a concentration of […] for 2 days before the cells were cultured in a folate uptake buffer (Hank's balanced salt solution, supplemented with 0.14 g/L CaCl2, 0.1 g/L MgCl2, and 0.1 g/L MgSO4, pH 6.0) for 1 hour. The buffer was then aspirated, and uptake was initiated by adding 0.2 mL of fresh folate uptake buffer containing 2 μCi/mL radioactive folate (3,5,7,9-^3H-folic acid, 25 mCi/mmol, ARC) and cold, unlabeled folate giving a final folate concentration of 5 μM. Folate uptake was terminated by removing the uptake buffer at designated time intervals. The cells were then washed three times with ice-cold PBS and lysed by adding 0.2 mL of 0.2 N NaOH, followed by incubating at 65° C. for 20 min. Intracellular uptake of ^3H-folate was determined by transferring 20 μL of the cell lysate to the filter-bottomed UniFilter plates (Perkin-Elmer) and counting as described previously in Example 1. The amount of folate accumulated in the cells was calculated and normalized to protein concentration, and uptake rate was expressed as picomoles of folate per minutes per milligram of cell protein (pmol/min/mg). Protein concentration was determined by a standard Bicinchoninic acid (BCA) protein assay as described above.

Caco2 cells [2] = assay: Cell viability assay (CCK-8); conditions: 10 μM and 50 μM, culture medium containing 1% FBS, 5 days
Protocol: In order to investigate whether the purified ginsenosides were toxic to the Caco2 cells, a cell viability assay was carried out using culture medium supplemented with 1% and 10% FBS, respectively. The cells were seeded at a concentration of 5000 cells/well in a 96-well plate. To eliminate the boundary effect of the cell growth, the cells were only seeded in 60 wells of the middle area of the plate, whereas 36 wells at the surrounding area of the plate were filled only with 100 μL of PBS. Once the cells were attached to the plate, the cells were incubated in medium containing the purified ginsenosides at various concentrations (0, 0.1, 1, 10 and 50 μM). […]
The cell viability was determined by a Cell Counting Kit-8 (CCK-8, Dojindo Laboratories, Kumamoto, Japan) assay that was based on redox reaction of NADH in the living cells with cell proliferation reagent WST-8. […] Therefore, a greater light absorbance detected by ELISA reader at wavelength of 450 nm indicated presence of a larger number of the living cells.
The CCK-8 assay was carried out by adding 10 μL of the CCK-8 reagent in each well of a 96-format plate. The plate was then covered with aluminum foil and further incubated for two hours before measuring for absorbance at wavelengths of 450 nm using an ELISA reader.

Caco2 cell monolayer = assay: Glucose absorption assay (transport across Caco2 monolayer in transwell, 14C-glucose); conditions: for Transport rate (glucose): 2 days pretreatment, 25 mM glucose
Protocol: For glucose absorption assay, 0.3 mL (10^5 cell/ml) of Caco2 cells were seeded into the apical chamber of each transwell and the basolateral chamber was added with 1 ml of culture medium (as indicated above). Costar transwell inserts (No. 3414, Corning Incorporated, NY, USA) separate each well in 24-well plates into an apical chamber (defined as a chamber above the insert) and a basolateral chamber (defined as a chamber below the insert). The culture medium in each transwell was changed every 2 days in both of the apical and basolateral chambers. To ensure the integrity of tight junction of Caco2 monolayer membrane formed in the transwell, a Trans-Epithelial Electrical Resistance (TEER) assay was conducted using Millicell®-ERS (Millipore EVOM-6; World Precision Instrument, Sarasota, Fla., USA) to measure the TEER between apical and basolateral chambers of the transwell. As the measured TEER reached 300 to 450 Ωcm^2 with the presence of differentiated brush border on the […] side of the cell on the 14th to 21st day of the culture, the Caco2 monolayer was ready for the glucose absorption test. The TEER values were taken before, during, and after each experiment to justify consistency of the data collected.
Glucose absorption was initiated by replacing the culture medium in the basolateral chamber with fresh glucose absorption buffer and the culture medium in the apical chamber with 0.2 mL of the glucose absorption buffer containing 2 μCi/ml of radioactive D-[^14C]-glucose (60 Ci/mmol, American Radiolabeled Chemicals, ARC, St. Louis, Mo., USA) and unlabeled cold glucose to give glucose at a final concentration of 25 mM. A series of five 10-μL samples were taken from the basolateral chamber at every 5 or 10 minute intervals. In order to maintain the constant buffer volume, same amount of sample buffer were added back to the basolateral chamber after withdrawn of each sample. The samples were transferred to the filter-bottomed UniFilter plates (Perkin-Elmer, Wellesley, Mass., USA) and dried in a vacuum oven at 37° C. The bottom of the UniFilter plate was sealed and 25 μL of the counting solution were added into each well. Adhesive plate sealers were used in place of the lids and radioactivity of each sample was counted using the microplate liquid scintillation counter (TopCount, Packard NXT, Packard BioScience Company, Meriden, Conn., USA). The effect of test compounds on glucose absorption was expressed as the nmoles of glucose accumulated in the basolateral chamber with respect to time in minutes (nmol/min). The glucose absorption rate was obtained by calculating the slope of the straight line from the time zero to the end point of the graphic data of each figure.

SMILES: CC(C)=CCC[C@](C)(O[C@@H]1O[C@H](CO)[C@@H](O)[C@H](O)[C@H]1O)[C@H]1CC[C@]2(C)[C@@H]1[C@H](O)C[C@@H]1[C@@]3(C)CC[C@H](O)C(C)(C)[C@@H]3[C@@H](O[C@@H]3O[C@H](CO)[C@@H](O)[C@H](O)[C@H]3O)C[C@]12C [Rg1, ginsenoside Rg1]
- Percentage (folate uptake, control = 100) (Caco2 cells [1]): 62.64%
- folate uptake versus non-treated control (in words, FIG. 5) (Caco2 cells [1]): decreased
- Transport rate (folate uptake) (Caco2 cells [1]; 2 days pretreatment, 5 μM folate, pH 6.0): 1.0780 ± 0.1534 pmol/mg/min
- cytotoxicity to Caco2 cells (cell viability) (Caco2 cells [2]): exhibited cytotoxicity
- effect on glucose absorption (in words) (Caco2 cell monolayer): inhibitory effect
- Percentage (glucose transport, control = 100) (Caco2 cell monolayer; compound 0.01 μM): 51.88%
- glucose transportation (in words, FIG. 2) (Caco2 cell monolayer; compound 0.01 μM to 1 μM): clearly inhibited
- Transport rate (glucose) (Caco2 cell monolayer; compound 0.01 μM): 1.1317 ± 0.1299 nmol/min
- Percentage (glucose transport, control = 100) (Caco2 cell monolayer; compound 0.1 μM): 58.51%
- Transport rate (glucose) (Caco2 cell monolayer; compound 0.1 μM): 1.2763 ± 0.1907 nmol/min
- Percentage (glucose transport, control = 100) (Caco2 cell monolayer; compound 1 μM): 96.68%
- Transport rate (glucose) (Caco2 cell monolayer; compound 1 μM): 2.1089 ± 0.2097 nmol/min
